Four compounds from ChEMBL document CHEMBL5584350, “Structural and Biochemical Insights into the Mechanism of Action of the Clinical USP1 Inhibitor, KSQ-4279” (J Med Chem, 2024) can be followed below.

Assay [1] is filed under the species Homo sapiens. The experiment in a line: Thermal stabilization of human His6-smt3 fused USP7 catalytic domain (208 to 560 residues) expressed in Escherichia coli assessed as increase in melting temperature at 50 uM by SYPRO orange dye based thermal shift assay.
Assay [2] has as its target Ubiquitin carboxyl-terminal hydrolase 12 (Homo sapiens) (UniProt O75317). Briefly: Inhibition of human USP12 at 100 uM by ubiquitin-rhodamine assay relative to control.
Assay [3] concerns the target Ubiquitin carboxyl-terminal hydrolase 46 (Homo sapiens) (UniProt P62068). The experiment in a line: Inhibition of human USP46 at 100 uM by ubiquitin-rhodamine assay relative to control.
Assay [4] has as its target Ubiquitin carboxyl-terminal hydrolase 11 (Homo sapiens) (UniProt P51784). The experiment in a line: Inhibition of USP11 (unknown origin).
Assay [5] deals with Ubiquitin carboxyl-terminal hydrolase 12 (Homo sapiens) (UniProt O75317). The experiment in a line: Inhibition of USP12 (unknown origin) at 10 uM relative to control.
Assay [6] deals with Ubiquitin carboxyl-terminal hydrolase 46 (Homo sapiens) (UniProt P62068). Briefly: Inhibition of USP46 (unknown origin) at 10 uM relative to control.
Assay [7] in a line: Selectivity index, ratio of inhibition of USP12 (unknown origin) to IC50 for human USP1.
Assay [8] addresses T1, Ubiquitin carboxyl-terminal hydrolase 1 (Homo sapiens) (UniProt O94782).
T1 sequence (whole entry): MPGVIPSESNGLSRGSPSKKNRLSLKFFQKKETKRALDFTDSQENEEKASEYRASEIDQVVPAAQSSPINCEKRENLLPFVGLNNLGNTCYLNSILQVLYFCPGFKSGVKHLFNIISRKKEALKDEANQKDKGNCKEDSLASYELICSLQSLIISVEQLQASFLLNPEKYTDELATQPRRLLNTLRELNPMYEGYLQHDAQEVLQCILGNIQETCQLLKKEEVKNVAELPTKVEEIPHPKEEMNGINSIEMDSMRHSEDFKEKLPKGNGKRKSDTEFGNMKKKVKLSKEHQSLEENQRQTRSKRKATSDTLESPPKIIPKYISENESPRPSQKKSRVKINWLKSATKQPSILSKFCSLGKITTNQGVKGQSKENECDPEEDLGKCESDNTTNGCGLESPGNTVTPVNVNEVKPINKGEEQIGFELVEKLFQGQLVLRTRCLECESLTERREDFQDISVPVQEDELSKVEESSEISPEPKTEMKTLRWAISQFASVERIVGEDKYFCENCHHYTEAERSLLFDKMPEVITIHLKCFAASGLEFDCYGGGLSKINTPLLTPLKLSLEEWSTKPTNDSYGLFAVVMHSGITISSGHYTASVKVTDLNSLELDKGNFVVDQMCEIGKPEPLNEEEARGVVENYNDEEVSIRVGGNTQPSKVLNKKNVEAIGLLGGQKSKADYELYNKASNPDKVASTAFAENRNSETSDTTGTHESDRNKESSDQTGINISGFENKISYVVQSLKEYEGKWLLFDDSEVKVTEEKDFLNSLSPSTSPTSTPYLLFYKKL
Briefly: Inhibition of human USP1 using FANC1-FANCD2Ub-ds DNA as substrate assessed as reduction in FANCD2 deubiquitination at 25 uM measured after 0 to 20 mins by instant-blue coomassie staining based SDS-PAGE analysis. The conditions noted are these: time 0-20 min.

The target in assay [9] is T1, Ubiquitin carboxyl-terminal hydrolase 1 (Homo sapiens). The conditions noted are these: dose 50.0 µM.
Description: Thermal stabilization of human USP1 assessed as increase in melting temperature at 50 uM by SYPRO Orange dye based thermal shift assay
The test system of assay [10] is Ubiquitin carboxyl-terminal hydrolase 1 (Homo sapiens), O94782 [UNDEFINED MUTATION]. The experiment in a line: Binding affinity to human His6 tagged/TEV fused USP1 229 to 408/608 to 737 residues disordered inserts deletion mutant expressed in Sf21 insect cells assessed as displacement of N85 by measuring alpha-chymotrypsin mediated protein truncation at F80 or R74 at 25 uM measured at 10 to 20 mins by instant-blue coomassie staining based SDS-PAGE analysis. The conditions noted are these: time 10-20 min.

The test system is the same in assay [11]. Briefly: Binding affinity to human His6 tagged/TEV fused USP1 229 to 408/608 to 737 residues disordered inserts deletion mutant expressed in Sf21 insect cells assessed as displacement of N85 by measuring trypsin mediated protein truncation at F80 or R74 at 25 uM measured at 10 to 20 mins by instant-blue coomassie staining based SDS-PAGE analysis. The conditions noted are these: time 10-20 min.

Activity calls are given as the source filed them. The rule behind the calls is not given here.

Chain of Ubiquitin carboxyl-terminal hydrolase 12 (Homo sapiens) (O75317 whole entry): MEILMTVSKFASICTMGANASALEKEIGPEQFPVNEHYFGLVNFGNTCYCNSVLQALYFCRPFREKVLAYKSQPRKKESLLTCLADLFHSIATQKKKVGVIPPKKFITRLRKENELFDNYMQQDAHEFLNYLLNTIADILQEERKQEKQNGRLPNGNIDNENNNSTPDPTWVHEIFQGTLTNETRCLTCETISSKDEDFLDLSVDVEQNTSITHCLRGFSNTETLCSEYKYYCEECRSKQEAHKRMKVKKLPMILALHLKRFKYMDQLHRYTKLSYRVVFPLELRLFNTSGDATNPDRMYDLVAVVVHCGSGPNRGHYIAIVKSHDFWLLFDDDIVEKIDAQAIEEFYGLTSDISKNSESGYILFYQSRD
Chain of Ubiquitin carboxyl-terminal hydrolase 46 (Homo sapiens) (P62068 whole entry): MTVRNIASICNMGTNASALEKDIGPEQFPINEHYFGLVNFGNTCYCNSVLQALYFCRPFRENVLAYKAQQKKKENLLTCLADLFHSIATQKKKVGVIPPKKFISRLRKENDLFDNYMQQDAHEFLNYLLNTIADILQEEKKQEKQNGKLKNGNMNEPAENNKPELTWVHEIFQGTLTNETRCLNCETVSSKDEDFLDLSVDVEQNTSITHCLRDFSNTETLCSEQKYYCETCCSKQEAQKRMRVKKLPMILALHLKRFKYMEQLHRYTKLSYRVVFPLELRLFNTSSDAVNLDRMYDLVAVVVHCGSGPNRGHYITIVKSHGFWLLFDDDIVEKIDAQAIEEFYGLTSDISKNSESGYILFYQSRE
Chain of Ubiquitin carboxyl-terminal hydrolase 11 (Homo sapiens) (P51784 whole entry): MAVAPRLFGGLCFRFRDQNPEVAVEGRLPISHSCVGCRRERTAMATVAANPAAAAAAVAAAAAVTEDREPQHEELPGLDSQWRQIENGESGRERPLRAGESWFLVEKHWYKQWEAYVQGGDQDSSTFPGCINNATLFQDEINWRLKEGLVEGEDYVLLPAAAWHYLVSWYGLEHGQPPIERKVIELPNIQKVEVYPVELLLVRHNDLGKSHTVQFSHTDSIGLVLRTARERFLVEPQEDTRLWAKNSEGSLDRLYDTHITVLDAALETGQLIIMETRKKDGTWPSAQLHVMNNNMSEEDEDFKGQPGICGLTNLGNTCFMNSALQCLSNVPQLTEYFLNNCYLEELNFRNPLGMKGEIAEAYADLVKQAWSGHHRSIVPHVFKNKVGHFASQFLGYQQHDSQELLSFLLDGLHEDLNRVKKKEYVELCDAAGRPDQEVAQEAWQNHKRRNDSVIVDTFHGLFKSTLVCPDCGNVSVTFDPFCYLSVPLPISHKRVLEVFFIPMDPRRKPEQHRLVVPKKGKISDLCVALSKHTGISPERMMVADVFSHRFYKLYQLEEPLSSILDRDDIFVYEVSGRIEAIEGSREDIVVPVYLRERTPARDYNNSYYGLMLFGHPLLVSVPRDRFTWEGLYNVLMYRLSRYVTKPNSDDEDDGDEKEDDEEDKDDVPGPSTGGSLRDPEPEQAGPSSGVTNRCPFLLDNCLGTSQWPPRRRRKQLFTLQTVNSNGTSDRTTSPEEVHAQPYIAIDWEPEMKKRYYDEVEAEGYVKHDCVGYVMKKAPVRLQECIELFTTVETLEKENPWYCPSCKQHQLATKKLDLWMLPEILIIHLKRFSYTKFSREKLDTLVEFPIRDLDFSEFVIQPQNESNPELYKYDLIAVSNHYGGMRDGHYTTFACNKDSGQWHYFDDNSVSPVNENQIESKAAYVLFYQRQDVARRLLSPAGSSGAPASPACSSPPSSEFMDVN

For the compound `COc1ncnc(C2CC2)c1-c1ncc2cnn(Cc3ccc(-c4nc(C(F)(F)F)cn4C(C)C)cc3)c2n1`, the result in assay [1] was inactive. Further, the inhibition in assay [2] and in [3] was less than 50% throughout. Besides, the inhibition (usually the relative decrease from the control value, in per cent) in assay [4] is “inactive”.
With `CC(C)c1ccccc1-c1ncc2[nH]c(=O)n(Cc3ccc(-c4nc(C(F)(F)F)cn4C)cc3)c2n1`, the inhibition in assay [5] and in assay [6] was 50% in each case.
Take `Cc1cnc(-c2ccccc2C(C)C)nc1NCc1ccc(-n2ccnn2)cc1`: the result in assay [1] was inactive. For the same compound, the inhibition entry in assay [4] and in assay [8] was “inactive” throughout. In [7], the Selectivity Index was 100. In addition, the shift in melting temperature (ΔTm) (usually the change in melting temperature against a reference sample) in assay [9] was found to be 11 °C.
`O=C1c2ccccc2C(=O)c2oc(-c3ccccc3)nc21`: the result in assay [10] and in [11] was inactive.
